# Assay results taken from patent US5861388A, “Steroid inhibitors of estrone sulfatase and associated pharmaceutical compositions and methods of use” (SRI International, priority 1997, dated 1999).
# Key:
# estrone sulfatase = target: T1, estrone sulfatase (Homo sapiens, UniProt P08842); experiment: Estrone sulfatase assay with intact MCF-7 cells; format: cell-based; settings: concentration giving 50 % inhibition, 24 h, 3H-estrone sulfate substrate
# T1 construct: Estrone Sulfatase Assay with Intact Cells; host or cells: MCF-7
# T1 sequence (P08842 22-583): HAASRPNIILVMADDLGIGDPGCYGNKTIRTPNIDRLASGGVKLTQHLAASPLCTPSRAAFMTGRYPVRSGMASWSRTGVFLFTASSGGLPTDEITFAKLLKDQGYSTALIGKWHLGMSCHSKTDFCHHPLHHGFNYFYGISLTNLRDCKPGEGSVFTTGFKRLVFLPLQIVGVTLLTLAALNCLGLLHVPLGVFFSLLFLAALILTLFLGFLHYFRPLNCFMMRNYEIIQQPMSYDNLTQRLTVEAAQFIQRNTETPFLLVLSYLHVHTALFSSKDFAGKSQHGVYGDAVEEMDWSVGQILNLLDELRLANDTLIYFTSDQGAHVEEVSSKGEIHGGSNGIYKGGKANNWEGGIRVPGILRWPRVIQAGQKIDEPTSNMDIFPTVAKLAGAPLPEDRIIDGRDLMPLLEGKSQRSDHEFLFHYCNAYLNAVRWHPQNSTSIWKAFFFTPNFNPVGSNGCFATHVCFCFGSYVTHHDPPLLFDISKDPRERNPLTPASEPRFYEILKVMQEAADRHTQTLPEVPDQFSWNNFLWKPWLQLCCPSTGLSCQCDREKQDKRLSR
# Source text: Test for the Effects of Inhibitors on Estrone Sulfatase Activity in MCF-7 Cells:
# Reagents: MCF-7 human breast cancer cells were supplied by the American Type Culture Collection, Rockville, Md. Eagle's minimum essential medium (MEM) and fetal calf serum (FCS) were purchased from Sigma Chemical Company, St. Louis, Mo. [4-^14 C] Estrone, [6,7-^3 H] estradiol and [6,7-^3 H(N)] estrone sulfate were obtained from New England Nuclear Research Products, Boston, Mass.
# Estrone Sulfatase Assay with Intact Cells. The procedure of Duncan et al., Cancer Res. 53:298-303 (1993) was followed. MCF-7 cells were seeded in 60×15 mm culture dishes at 1×10^5 cells/dish and maintained in 4.0 mL of MEM containing 2 mM of glutamine and 5% of FCS. The cells were incubated at 37° C. in a 5% CO2 /95% air atmosphere and 100% humidity, with the medium changed every third day. When the cells reach 80% confluency, the intact monolayers were washed once with Earl's balanced salt solution and incubated in 4.0 mL of serum-free MEM containing the substrate (^3 H-estrone sulfate, 7 pmol, 9×10^5 dpm) and inhibitor dissolved in ethanol or ethanol alone. The final ethanol concentration was always be below 1%. The incubation continued for 24 h. 2.0 mL of medium was transferred into separate tubes containing 7×10^3 dpm of ^14 C-estrone. The mixture was vortexed vigorously for 60 s with 5 mL of toluene. After phase separation, 2.0 mL of the organic phase was transferred into a counting vial for scintillation counting. The amount of estrone sulfate hydrolyzed was calculated on the basis of the ^3 H counts obtained, with the added ^14 C-estrone used to correct for recovery through the extraction procedure.
# The cells remaining in each culture dish were washed with saline once and then scraped with 1.0 mL of 0.5N NaOH into 10×75 mm tubes. The cell pellets in each tube were incubated at 50° C. for 20 min. to ensure that digestion was complete and that all proteins became soluble. An aliquot was then taken for protein determination by Lowry's method (Lowry et al., J. Biol. Chem. 193:265-275 (1951)).
# The amount of estrone sulfate hydrolyzed with the inhibitor relative to that without the inhibitor was evaluated to give the percentage of inhibition.
# [1] = test system: MCF-7 human breast carcinoma xenografts; experiment: Tumor growth inhibition assay, MCF-7 human breast carcinoma xenografts in athymic mice; format: in vivo, human MCF-7 xenografts in female BALB/c athymic mice; settings: i.p. 1.0 mg/mouse/day for 5 weeks, mean ± S.E.
# Source text: In Vivo Efficacy Studies Using MCF-7 Cells in Nude Mice: For in vivo evaluation, human xenografts were used in nude (athymic) mice, in the context of a solid tumor assay. MCF-7 human breast carcinomas in nude mice were used as the model for evaluating the estrone sulfatase inhibitors. The protocol followed was essentially that of Yue et al., J. Steroid Biochem. 44:671-673 (1993). Because MCF-7 cells are known to require supplementation with estradiol to sustain progressive growth in athymic nude mice (Soule et al., Cancer Lett. 10:177-189 (1980)), estrone sulfate was used for supplemental estrogen in the model studies. The enzyme inhibitors were administered by intravenous injection, oral gavage, and intraperitoneal administration, and comparative efficacy of the various compounds were evaluated using these different routes. Female BALB/c athymic mice 4-6 weeks of age were supplied by Charles River Breeding Laboratories, Boston, Mass. MCF-7 cells for the in vitro cell growth inhibition assay were obtained from the American Type Culture Collection, Rockville, Md., and cultured under the same conditions as described above for the sulfatase assay. Tumor Growth Inhibition Assay (see […] et al. (1990), supra, Yue et al., supra, and Noel et al., Biochem. Pharmacol. 43:1263-1267 (1992): The athymic mice were housed five per cage in controlled conditions of light and humidity and received food and water ad libitum throughout the entire experiment. The mice were quarantined for three working days before use in experiments. Prior to the initiation of the antitumor experiments, the mice were housed for seven days to familiarize them with the experimental environment. Temperature was maintained at 72±5° F., with relative humidity at 35-70% and a 12-h light/dark cycle. The mice were fed certified Purina rodent chow and drinking water ad libitum. The source water was recirculated, deionized, UV-treated, and filtered (5-μm filter). At the beginning of the experiment, all but five of the mice underwent oophorectomies to eliminate the endogenous level of estrogen. After all animals recovered from surgery, all mice in the study received 5 μmol of estrone sulfate daily via gavage or subcutaneous (sc) injection. The dosing of estrone sulfate was carried out throughout the entire experiment. Seven days after the animals began treatment with estrone sulfate, each mouse was be injected sc twice (once in each flank) with 2.5×10^6 MCF-7 cells suspended in 0.1 mL of serum-free tissue culture medium to induce tumor growth. The growth rate was determined by measuring the tumors with calipers weekly. Tumor volumes were calculated according to the formula 4/3πr1^2,r2, where r1 and r2 represent the tumor radii. When the average tumor volume per mouse reached approximately 200 mm^3, animals began to receive various doses of estrone sulfatase inhibitors dissolved in 0.1 mL of phosphate buffered saline (PBS). Dosing was by oral gavage, intravenous injection, and intraperitoneal injection; daily dosing with estrone sulfatase inhibitors was continued throughout the remainder of the experiment. The estrone sulfatase inhibitors not soluble in aqueous solutions were dissolved in EtOH first and diluted with PBS to obtain the appropriate concentrations of inhibitor but keeping the concentration of EtOH below 1%. For each test compound, the mice were divided into several groups with five animals in each group. These groups were as follows: intact control group receiving PBS alone; oophorectomized control group receiving PBS alone; and oophorectomized treatment groups receiving various doses of estrone sulfatase inhibitors. […] The change in tumor volume in the treatment groups relative to that in the oophorectomized control group gave the percent inhibition of a given inhibitor.
SMILES,IC50 (estrone sulfatase) [µM],also measured
"C[C@]12CC[C@@H]3c4ccc5c(c4CC[C@H]3[C@@H]1CC[C@@H]2O)CNS(=O)(=O)O5 [Compound 14, 17β-Hydroxyestra-1,3,5(10)-trieno-[3,4,e]-3',4'-dihydro-1',2',3'-oxathiazine-2',2'-dioxide]",15,–
"CCC[C@H]1CC[C@H]2[C@@H]3CCc4cc5c(cc4[C@H]3CC[C@]12C)C=NS(=O)(=O)O5 [Compound 35, 17β-Propylestra-1,3,5(10)-trieno-[3,2,e]-1',2',3'-oxathiazine-2',2'-dioxide]",0.12,–
"CC/C=C1/CC[C@H]2[C@@H]3CCc4cc5c(cc4[C@H]3CC[C@]12C)C=NS(=O)(=O)O5 [Compound 32, [17(20)Z]-Propylideneestra-1,3,5(10)-trieno-[3,2,e]-1',2',3'-oxathiazine-2',2'-dioxide]",0.058,–
"C/C=C1/CC[C@H]2[C@@H]3CCc4cc5c(cc4[C@H]3CC[C@]12C)C=NS(=O)(=O)O5 [Compound 31, [17(20)Z]-norpregna-1,3,5(10),17(20)-tetraeno-[3,2,e]-1',2',3'-oxathiazine-2',2'-dioxide]",0.063,–
"CCC/C=C1/CC[C@H]2[C@@H]3CCc4cc5c(cc4[C@H]3CC[C@]12C)C=NS(=O)(=O)O5 [Compound 33, [17(20)Z]-19,21-dinorchola-1,3,5(10),17(20)-tetraeno-[3,2,e]-1',2',3'-oxathiazine-2',2'-dioxide]",0.72,–
"C[C@]12CC[C@@H]3c4cc5c(cc4CC[C@H]3[C@@H]1CC[C@@H]2O)OS(=O)(=O)N=C5 [Compound 10, 17β-hydroxyestra-1,3,5(10)-trieno-[3,2,e]-1',2',3'-oxathiazine-2',2'-dioxide]",0.02,–
"CC(=O)O[C@H]1CC[C@H]2[C@@H]3CCc4cc5c(cc4[C@H]3CC[C@]12C)C=NS(=O)(=O)O5 [Compound 4, 17β-acetoxyestra-1,3,5(10)-trieno-[3,2,e]-1',2',3'-oxathiazine-2',2'-dioxide]",0.012,–
"CC[C@H]1CC[C@H]2[C@@H]3CCc4cc5c(cc4[C@H]3CC[C@]12C)C=NS(=O)(=O)O5 [Compound 17, 19-norpregna-1,3,5(10)-trieno-[3,2,e]-1',2',3'-oxathiazine-2',2'-dioxide]",0.05,–
"C[C@H]1CC[C@H]2[C@@H]3CCc4cc5c(cc4[C@H]3CC[C@]12C)C=NS(=O)(=O)O5 [Compound 34, 17β-methylestra-1,3,5(10)-trieno-[3,2,e]-1',2',3'-oxathiazine-2',2'-dioxide]",0.045,–
"C[C@]12CC[C@@H]3c4cc5c(cc4CC[C@H]3[C@@H]1CC[C@@H]2O)OS(=O)(=O)NC5 [Compound 11, 17β-Hydroxyestra-1,3,5(10)-trieno-[3,2,e]-3',4'-dihydro-1',2',3'-oxathiazine-2',2'-dioxide]",0.82,–
"CCCC[C@H]1CC[C@H]2[C@@H]3CCc4cc5c(cc4[C@H]3CC[C@]12C)C=NS(=O)(=O)O5 [Compound 36, 17β-19,21-dinorchola-1,3,5(10)-trieno-[3,2,e]-1',2',3'-oxathiazine-2',2'-dioxide]",0.59,–
"CO[C@H]1CC[C@H]2[C@@H]3CCc4cc5c(cc4[C@H]3CC[C@]12C)C=NS(=O)(=O)O5 [Compound 43, 17β-methoxyestra-1,3,5(10)-trieno-[3,2,e]-1',2',3'-oxathiazine-2',2'-dioxide]",0.05,–
"C[C@]12CC[C@@H]3c4cc5c(cc4CC[C@H]3[C@@H]1CCC2=O)OS(=O)(=O)N=C5 [Compound 6, Estra-1,3,5(10)-trien-17-ono-[3,2,e]-1',2',3'-oxathiazine-2',2'-dioxide]",0.0093,"Tumor Volume, week 0 ([1]; week 0, control 96.5 ± 5.2): 133.6 ± 15.9 mm^3; Tumor Volume, week 1 ([1]; week 1, control 184.1 ± 26.3): 185.8 ± 16.5 mm^3; Tumor Volume, week 2 ([1]; week 2, control 191.2 ± 36.1): 191.3 ± 25.1 mm^3; Tumor Volume, week 3 ([1]; week 3, control 232.9 ± 46.4): 181.8 ± 27.8 mm^3; Tumor Volume, week 4 ([1]; week 4, control 299.5 ± 54.3): 234.0 ± 50.7 mm^3; Tumor Volume, week 5 ([1]; week 5, control 349.0 ± 46.2): 285.8 ± 47.7 mm^3"
"C=C=C1CC[C@H]2[C@@H]3CCc4cc5c(cc4[C@H]3CC[C@]12C)C=NS(=O)(=O)O5 [Compound 40, 19-Norpregna-1,3,5(10),17(20),20-pentaeno-[3,2,e]-1',2',3'-oxathiazine-2',2'-dioxide]",0.074,–
"C=C1CC[C@H]2[C@@H]3CCc4cc5c(cc4[C@H]3CC[C@]12C)C=NS(=O)(=O)O5 [Compound 30, 17-methyleneestra-1,3,5(10)-trieno-[3,2,e]-1',2',3'-oxathiazine-2',2'-dioxide]",0.072,–
"C[C@]12CC[C@@H]3c4ccc5c(c4CC[C@H]3[C@@H]1CCC2=O)C=NS(=O)(=O)O5 [Compound 13, estra-1,3,5(10)-trien-17-ono-[3,4,e]-1',2',3'-oxathiazine-2',2'-dioxide]",0.044,–
